Experiments:
Experiment in all cases: relative viability (nuclei count vs DMSO), 5 days (fraction); higher = more cells survive
[1] = compound: CC1=C(C(=NN1)C)CC2=C(C3=C(S2)N(C(=O)N(C3=O)C)CC(C)C)C(=O)N4C[C@@H](CO4)O + Cc1cc(Nc2cc(N3CCN(C)CC3)nc(Sc3ccc(NC(=O)C4CC4)cc3)n2)n[nH]1 [Tozasertib] (partner 0.1 µM)
In short: (§1)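 Lung cancer cell lines were pin-tool dosed in 1536-well plates on the day after seeding, with either a lone drug or a fixed anchor-drug dose plus five library-drug doses (not always all listed) in √10 steps. Nuclei were counted on 4× images after 5 days. Relative viability is the ratio of treated-well to vehicle-well nuclei counts, with each value a median of duplicate plates.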

[2] = compound: Cc1ccccc1C(C(=O)NC1CCCCC1)N(C(=O)Cn1ccnc1C)c1cccc(F)c1 [IDH-C35] + CC1(C)CCC(c2ccc(Cl)cc2)=C(CN2CCN(c3ccc(C(=O)NS(=O)(=O)c4ccc(N[C@H](CCN5CCOCC5)CSc5ccccc5)c(S(=O)(=O)C(F)(F)F)c4)cc3)CC2)C1 [Navitoclax] (partner 0.5 µM)
In short: as §1

[3] = compound: Cc1ccccc1C(C(=O)NC1CCCCC1)N(C(=O)Cn1ccnc1C)c1cccc(F)c1 [IDH-C35] + C[C@@H](Oc1cc(-c2cnn(C3CCNCC3)c2)cnc1N)c1c(Cl)ccc(F)c1Cl [Crizotinib] (partner 1 µM)
In short: as §1

[4] = compound: Cc1ccccc1C(C(=O)NC1CCCCC1)N(C(=O)Cn1ccnc1C)c1cccc(F)c1 [IDH-C35] + Nc1nc2[nH]cc(CCc3ccc(C(=O)N[C@@H](CCC(=O)O)C(=O)O)cc3)c2c(=O)[nH]1 [Pemetrexed] (partner 0.2 µM)
In short: as §1

Row | Cell Line | relative viability ([1]; first compound 0.0025 µM) | relative viability ([1]; first compound 0.007906 µM) | relative viability ([1]; first compound 0.025 µM) | relative viability ([1]; first compound 0.07906 µM) | relative viability ([1]; first compound 0.25 µM) | relative viability ([2]; first compound 0.08 µM) | relative viability ([2]; first compound 0.253 µM) | relative viability ([2]; first compound 0.8 µM) | relative viability ([2]; first compound 2.53 µM) | relative viability ([2]; first compound 8 µM) | relative viability ([3]; first compound 0.08 µM) | relative viability ([3]; first compound 0.253 µM) | relative viability ([3]; first compound 0.8 µM) | relative viability ([3]; first compound 2.53 µM) | relative viability ([3]; first compound 8 µM) | relative viability ([4]; first compound 0.08 µM) | relative viability ([4]; first compound 0.253 µM) | relative viability ([4]; first compound 0.8 µM) | relative viability ([4]; first compound 2.53 µM) | relative viability ([4]; first compound 8 µM)
1 | HCC-44 | 0.888 | 0.746 | 0.915 | 0.882 | 1.13 | 0.927 | 1.02 | 1.02 | 0.953 | 0.952 | 0.848 | 0.794 | 0.719 | 0.801 | 0.733 | 0.6 | 0.639 | 0.658 | 0.633 | 0.667
2 | HCC-827 | 0.475 | 0.437 | 0.393 | 0.428 | 0.397 | 0.975 | 0.997 | 1.05 | 0.949 | 1.03 | 0.911 | 0.956 | 0.911 | 0.876 | 0.957 | 0.279 | 0.266 | 0.269 | 0.248 | 0.238
3 | NCI-H1623 | 0.463 | 0.494 | 0.467 | 0.398 | 0.49 |  |  |  |  |  |  |  |  |  |  |  |  |  |  | 
4 | NCI-H1395 | 0.757 | 0.681 | 0.581 | 0.592 | 0.599 | 1.14 | 1.05 | 1.49 | 1.08 | 1.16 |  |  |  |  |  | 0.869 | 0.882 | 0.866 | 0.989 | 0.925
5 | NCI-H1563 |  |  |  |  |  |  |  |  |  |  | 0.874 | 0.907 | 0.861 | 0.92 | 0.854 | 0.827 | 0.803 | 0.652 | 0.854 | 0.613
6 | ABC-1 | 0.197 | 0.196 | 0.216 | 0.19 | 0.255 |  |  |  |  |  | 0.876 | 1.21 | 1.3 | 1.15 | 1.09 |  |  |  |  | 
7 | SW 900 | 0.57 | 0.558 | 0.536 | 0.524 | 0.591 |  |  |  |  |  |  |  |  |  |  | 0.51 | 0.459 |  | 0.506 | 0.485
8 | NCI-H1648 | 0.462 | 0.542 | 0.754 | 0.37 | 0.458 |  |  |  |  |  |  |  |  |  |  |  | 0.758 | 0.712 | 0.807 | 0.529
9 | A549 |  |  |  |  |  | 1.19 | 1.16 | 1.17 | 1.22 | 1.15 | 0.819 | 0.794 | 0.814 | 0.669 | 0.744 |  |  |  |  | 
10 | NCI-H1792 |  |  |  |  |  | 0.637 | 0.593 | 0.619 | 0.621 | 0.646 | 0.972 | 0.949 | 0.94 | 1.01 | 0.971 | 1.03 | 0.711 | 0.721 | 0.899 | 0.919
11 | NCI-H1703 |  |  |  |  |  | 1.05 | 1.29 | 1.49 | 1.11 | 0.897 | 0.582 | 0.875 | 1.09 | 0.636 | 0.823 |  |  |  |  | 
12 | LCLC-103H | 0.544 | 0.564 | 0.505 | 0.551 | 0.543 |  |  |  |  |  | 1.01 | 1.07 | 1 | 1.07 | 0.987 | 0.452 | 0.49 | 0.467 | 0.48 | 0.428
13 | Calu-6 |  |  |  |  |  | 0.838 | 0.765 | 0.997 | 0.968 | 0.78 | 0.765 | 0.745 | 0.804 | 0.833 | 0.742 |  |  |  |  | 
14 | NCI-H358 | 0.12 | 0.0943 | 0.0965 | 0.11 | 0.112 |  |  |  |  |  | 0.67 | 0.516 | 0.559 | 0.505 | 0.589 | 0.168 | 0.179 | 0.175 | 0.184 | 0.172
15 | NCI-H2342 | 0.599 | 0.421 | 0.481 | 0.558 | 0.552 |  |  |  |  |  |  |  |  |  |  | 0.78 | 0.742 | 0.775 | 0.768 | 0.679
16 | EBC-1 |  |  |  |  |  | 0.364 | 0.503 | 0.52 | 0.359 | 0.203 | 0.181 | 0.187 | 0.168 | 0.194 | 0.161 |  |  |  |  | 
17 | NCI-H1299 |  |  |  |  |  | 1.02 | 1.08 | 1.02 | 1.05 | 1.03 | 0.97 | 0.953 | 0.981 | 0.923 | 0.93 |  |  |  |  | 
18 | NCI-H522 | 0.516 | 0.537 | 0.545 | 0.419 | 0.418 |  |  |  |  |  |  |  |  |  |  | 0.874 | 1.04 | 0.818 | 0.793 | 1.05
19 | IA-LM |  |  |  |  |  | 0.711 | 0.838 | 0.798 | 0.742 | 0.707 | 0.94 | 0.874 | 0.741 | 0.755 | 0.704 |  |  |  |  | 
20 | NCI-H727 | 0.676 | 0.788 | 0.696 | 0.513 | 0.513 | 0.377 | 0.429 | 0.371 | 0.399 | 0.35 | 0.853 | 0.734 | 0.826 | 0.916 | 0.954 |  |  |  |  | 
21 | NCI-H650 | 0.77 | 0.747 | 0.702 | 0.692 | 0.739 |  |  |  |  |  | 0.671 | 0.677 | 0.9 |  | 0.689 | 0.911 | 0.96 | 0.893 |  | 0.893
22 | NCI-H661 | 0.344 | 0.372 | 0.354 | 0.341 | 0.353 |  |  |  |  |  | 0.969 | 0.973 |  | 0.975 | 0.971 | 0.95 | 0.948 | 0.893 | 0.901 | 0.879
23 | NCI-H1793 | 0.453 | 0.28 | 0.327 | 0.271 | 0.24 | 0.549 | 0.446 | 0.444 | 0.456 | 0.608 |  |  |  |  |  | 0.759 | 0.783 | 0.804 | 1.04 | 0.854
